In test [1] the target is Pyruvate dehydrogenase kinase (Homo sapiens, UniProt Q15119+Q15120+Q16654+Q15118). Put plainly: In vitro inhibitory activity against pyruvate dehydrogenase kinase was determined. Format: protein assay.
Test [2] deals with Mus musculus. Put plainly: In vivo activity in a diabetic mouse at a dose of 100 umol/kg/day on day 3 after 2 hr. It counts as functional.
The species entered for another test is Homo sapiens. Put plainly: In vitro effective concentration in normal human dermal fibroblasts; Inactive. It counts as functional.
Test [3] concerns Mus musculus. In words: In vivo activity in a diabetic mouse at a dose of 100 umol/kg/day on day1 after 6 hr. It counts as functional.
The test system of test [4] is Mus musculus. Put plainly: In vivo activity in a diabetic mouse at a dose of 100 umol/kg/day on day 3 after 4 hr. Format: functional.
For test [5], the system named is Mus musculus. In words: In vivo activity in a diabetic mouse at a dose of 100 umol/kg/day on day1 after 2 hr. Format: functional.
For test [6], the system named is Mus musculus. Put plainly: In vivo activity in a diabetic mouse at a dose of 100 umol/kg/day on day 3 after 6 hr. Format: functional.
In test [7] the test system is Mus musculus. In words: In vivo activity in a diabetic mouse at a dose of 100 umol/kg/day on day1 after 4 hr. Format: functional.
The test system of test [8] is Rattus norvegicus. In words: Effect on blood lactate level after 0 hour of oral administration of compound at a dose of 300 umol/kg. Format: functional.
The nature of test [9]: In vitro effective concentration in normal human dermal fibroblasts. Format: functional.
Test [10] has as its system Mus musculus. In words: In vivo activity in a diabetic mouse at a dose of 300 umol/kg/day on day1 after 4 hr. Format: functional.
For test [11], the system named is Mus musculus. In words: In vivo activity in a diabetic mouse at a dose of 300 umol/kg/day on day 3 after 2 hr. Format: functional.
In test [12] the test system is Mus musculus. Put plainly: In vivo activity in a diabetic mouse at a dose of 30 umol/kg/day on day1 after 4 hr. It counts as functional.
Test [13] concerns Rattus norvegicus. In words: Effect on blood glucose level after 2 hours of oral administration of compound at a dose of 300 umol/kg. It counts as functional.
The subject of test [14] is Mus musculus. In words: In vivo activity in a diabetic mouse at a dose of 30 umol/kg/day on day 3 after 6 hr. It counts as functional.
Test [15] concerns Rattus norvegicus. Put plainly: Effect on blood glucose level after 0 hour of oral administration of compound at a dose of 300 umol/kg. It counts as functional.
Test [16] deals with Mus musculus. In words: In vivo activity in a diabetic mouse at a dose of 300 umol/kg/day on day 3 after 4 hr. Format: functional.
Test [17] concerns Rattus norvegicus. In words: Effect on blood glucose level after 4 hours of oral administration of compound at a dose of 300 umol/kg. Format: functional.
The subject of test [18] is Rattus norvegicus. Put plainly: Effect on blood lactate level after 4 hours of oral administration of compound at a dose of 300 umol/kg. It counts as functional.
In test [19] the test system is Rattus norvegicus. Put plainly: Effect on blood lactate level after 2 hours of oral administration of compound at a dose of 300 umol/kg. Format: functional.
The test system of test [20] is Mus musculus. In words: In vivo activity in a diabetic mouse at a dose of 300 umol/kg/day on day1 after 2 hr. It counts as functional.
Test [21] concerns Mus musculus. Put plainly: In vivo activity in a diabetic mouse at a dose of 30 umol/kg/day on day 3 after 2 hr. It counts as functional.
Test [22] concerns Mus musculus. Put plainly: In vivo activity in a diabetic mouse at a dose of 30 umol/kg/day on day 3 after 4 hr. Format: functional.
Test [23] has as its system Mus musculus. In words: In vivo activity in a diabetic mouse at a dose of 30 umol/kg/day on day1 after 6 hr. It counts as functional.
Test [24] concerns Mus musculus. In words: In vivo activity in a diabetic mouse at a dose of 30 umol/kg/day on day1 after 2 hr. Format: functional.
For test [25], the system named is Mus musculus. Put plainly: In vivo activity in a diabetic mouse at a dose of 300 umol/kg/day on day 3 after 6 hr. It counts as functional.
Test [26] has as its system Mus musculus. In words: In vivo activity in a diabetic mouse at a dose of 300 umol/kg/day on day1 after 6 hr. Format: functional.
The test system of test [27] is Mus musculus. Put plainly: In vivo activity in a diabetic mouse at a dose of 200 umol/kg/day on day1 after 2 hr. It counts as functional.
Test [28] has as its system Mus musculus. In words: In vivo activity in a diabetic mouse at a dose of 200 umol/kg/day on day 3 after 6 hr. Format: functional.
The test system of test [29] is Mus musculus. In words: In vivo activity in a diabetic mouse at a dose of 200 umol/kg/day on day1 after 4 hr. It counts as functional.
For test [30], the system named is Mus musculus. Put plainly: In vivo activity in a diabetic mouse at a dose of 200 umol/kg/day on day1 after 6 hr. Format: functional.
Test [31] relates to Mus musculus. Put plainly: In vivo activity in a diabetic mouse at a dose of 200 umol/kg/day on day 3 after 2 hr. It counts as functional.
In test [32] the test system is Mus musculus. In words: In vivo activity in a diabetic mouse at a dose of 200 umol/kg/day on day 3 after 4 hr. It counts as functional.
Test [33] deals with Mus musculus. Put plainly: In vivo activity in a diabetic mouse at a dose of 1000 umol/kg/day on day1 after 6 hr. Format: functional.
The test system of test [34] is Mus musculus. Put plainly: In vivo activity in a diabetic mouse at a dose of 1000 umol/kg/day on day1 after 2 hours. Format: functional.
Test [35] concerns Mus musculus. In words: In vivo activity in a diabetic mouse at a dose of 1000 umol/kg/day on day 3 after 6 hr. Format: functional.
The subject of test [36] is Mus musculus. In words: In vivo activity in a diabetic mouse at a dose of 1000 umol/kg/day on day 3 after 4 hr. It counts as functional.
Test [37] deals with Mus musculus. Put plainly: In vivo activity in a diabetic mouse at a dose of 1000 umol/kg/day on day 3 after 2 hr. It counts as functional.
The test system of test [38] is Mus musculus. In words: In vivo activity in a diabetic mouse at a dose of 1000 umol/kg/day on day1 after 4 hr. Format: functional.

As for `C[C@]12CC[C@H]3[C@@H](CCC4=C/C(=N/O)CC[C@@H]43)[C@@H]1CC[C@@H]2O`, the IC50 in test [1] was found to be 5.4 µM.
For the compound `C[C@]12CC/C(=N\O)C[C@@H]1CC[C@@H]1[C@@H]2CC[C@]2(C)[C@@H](O)CC[C@@H]12`, the IC50 in test [1] came to 51 µM.
For the compound `CC(C)C1=CC2=CC[C@H]3[C@](C)(CO)CCC[C@]3(C)[C@H]2CC1`, the Efficacy is 7% in the test with Mus musculus [2]; 19% with Mus musculus [3]; 10% in the test on Mus musculus [4]; 7% in the test on Mus musculus [5]; 24% in the test on Mus musculus [6]; -8% with Mus musculus [7]. Moreover, the IC50 in test [1] is recorded as ~ 10 uM. Also, the EC50 result in the test listed under Homo sapiens is given as “Not Active”.
The compound `C[C@]12CC[C@H]3[C@@H](CCC4=C/C(=N/CC(=O)O)CC[C@@H]43)[C@@H]1CC[C@@H]2O` showed an IC50 in test [1] of 56 µM. This lies in the double-digit micromolar range.
Take `C#C[C@]1(O)CC[C@H]2[C@@H]3CCC4=C/C(=N/O)CC[C@@H]4[C@H]3CC[C@@]21C`: the IC50 in [1] was determined as 5.8 µM.
Turning to `C=C=C[C@]1(O)CC[C@H]2[C@@H]3CCC4=C/C(=N/O)CC[C@@H]4[C@H]3CC[C@@]21C`, the Blood lactate came to 1.01 mM in the test with Rattus norvegicus [8], 0.79 mM with Rattus norvegicus [18] and 0.8 mM in the test with Rattus norvegicus [19]. The EC50 in [9] is 1.7 µM; in the test listed under Homo sapiens, “Not Active”. For the same compound, the Efficacy is 19% in the test with Mus musculus [10]; 73% in the test on Mus musculus [2]; 92% with Mus musculus [11]; -3% in the test on Mus musculus [12]; -6% with Mus musculus [14]; 83% with Mus musculus [16]. Further, the Efficacy was 26% in the test with Mus musculus [3]; -2% in the test with Mus musculus [20]; 70% in the test with Mus musculus [4]; 38% in the test on Mus musculus [21]; 3% in the test with Mus musculus [5]; 47% in the test with Mus musculus [6]. In addition, the Efficacy is reported as 43% in the test on Mus musculus [22]; 2% in the test with Mus musculus [23]; -6% in the test on Mus musculus [24]; 75% in the test on Mus musculus [25]; 4% with Mus musculus [7]; 51% in the test on Mus musculus [26]. In [1], this compound yielded an IC50 of 0.84 µM. Further, the Blood glucose in the test on Rattus norvegicus [13] came out at 49.1 mg/dL; in the test with Rattus norvegicus [15] it was 49.5 mg/dL; in the test with Rattus norvegicus [17] it was 49.3 mg/dL.
In the case of `CC(C)c1ccc2c(c1)CC[C@H]1[C@](C)(CN)CCC[C@]21C`, the Efficacy with Mus musculus [10] is recorded as 69%; with Mus musculus [2], 26%; in the test with Mus musculus [11] it was 85%; in the test on Mus musculus [12] it was -1%; in the test with Mus musculus [14], 19%; with Mus musculus [16] it was 86%. In addition, the Efficacy is recorded as 22% in the test with Mus musculus [3]; 68% in the test with Mus musculus [20]; 36% with Mus musculus [4]; -4% with Mus musculus [21]; 30% with Mus musculus [5]; 47% with Mus musculus [6]. Besides, the Efficacy was determined as 2% with Mus musculus [22]; 11% with Mus musculus [23]; 18% in the test on Mus musculus [24]; 90% with Mus musculus [25]; 28% in the test on Mus musculus [7]; 65% in the test on Mus musculus [26]. The IC50 in [1] came to 9.5 µM. The EC50 entry in the test filed under Homo sapiens was “Not Active”.
Turning to `CC(C)C1=CC2=CC[C@@H]3[C@](C)(CCC[C@@]3(C)C(N)=O)[C@H]2CC1`, the Efficacy in the test on Mus musculus [27] was 4%; with Mus musculus [28] it was 16%; in the test on Mus musculus [29], -2%; with Mus musculus [30] it was 16%; with Mus musculus [31], 13%; in the test on Mus musculus [32] it was 9%. This compound also came in with an IC50 in test [1] of 6.7 µM. In the test listed under Homo sapiens, the EC50 result is on record as “Not Active”.
Take `C[C@]12CC/C(=N\O)C[C@H]1CC[C@@H]1[C@@H]2CC[C@]2(C)[C@@H](O)CC[C@@H]12`: the IC50 in test [1] was found to be 36 µM.
For `CC(C)C1=CC2=CC[C@@H]3[C@](C)(CCC[C@@]3(C)C(=O)O)[C@H]2CC1` [ABIETIC ACID], the Efficacy is 45% with Mus musculus [27]; 29% in the test on Mus musculus [28]; 25% in the test on Mus musculus [29]; 42% with Mus musculus [30]; 24% with Mus musculus [31]; 22% with Mus musculus [32]. In test [1], this compound gave an IC50 of 20 µM. For the same compound, the EC50 entry in the test filed under Homo sapiens is reported as “Not Active”.
`O=C(O)C(Cl)Cl` [DICHLOROACETIC ACID]: the EC50 in [9] worked out at 100 µM. For the same compound, the Efficacy in the test with Mus musculus [33] turned out to be 29%; in the test with Mus musculus [34] it was 59%; in the test on Mus musculus [35], 56%; in the test with Mus musculus [36] it was 50%; in the test with Mus musculus [37], 52%; in the test on Mus musculus [38], 39%.
As to `C[C@]12CC[C@H]3[C@@H](CCC4=CC(=O)CC[C@@H]43)[C@@H]1CC[C@@H]2O` [NANDROLONE], in test [1], the IC50 was 120 µM.
